Assay results taken from patent US11084841B1, “Chitooligosaccharide-N-geraniol derivatives, methods for preparing and application thereof” (Jiangnan University, priority 2020, dated 2021).

Experiments:
Escherichia coli = test: antibacterial activity test, culture plate with antibacterial substance; type: cell-based; settings: 1 mg/ml antibacterial substance, 37° C., 24 hours, versus control plate, FIG. 6
Method: (§1) Gram negative and positive bacterium (Escherichia coli and Staphylococcus aureus) are selected for the antibacterial activity test. The bacteria strain was selected to grow in LB culture medium and sub-culture to the second generation in logarithmic phase. The bacterial suspension was diluted to the required concentration (10^5 CFU/ml) with normal saline. Under the aseptic condition, the bacterial solution and antibacterial substance solution (mix 5 μL bacterial solution and 5 mL LB liquid medium containing 1 mg/ml antibacterial substance) were added onto the culture plate and mixed evenly. The control group was the culture plate without antibacterial substance, and then the culture plates were incubated at 37° C. for 24 hours to observe the growth of bacteria.

Staphylococcus aureus = test: as above; type: cell-based; settings: 1 mg/ml antibacterial substance, 37° C., 24 hours, versus control plate, FIG. 5
Method: as §1

CC(C)=CCC/C(C)=C/CO [Ger, (2E)-3,7-dimethylocta-2,6-dien-1-ol]
inhibition of bacterial growth (Escherichia coli): able to inhibit
inhibition of bacterial growth (Staphylococcus aureus): able to inhibit
